From the supplement of paper PMC12613149

Tests used:
[1] = collision cross section (TIMS, N2 drift gas) of the primary ion; higher = larger gas-phase ion size
[2] = reversed-phase LC retention time (C18, 15 min MeOH gradient); higher = more hydrophobic / later elution
[3] = ionization mode: ESI+, ion species: [M]+
[4] = ionization mode: ESI+, ion species: [M+H]+
[5] = ionization mode: ESI-, ion species: [M-H]-

Structure (SMILES) | collision cross section [1, 3] | reversed-phase LC retention time [2, 3] | collision cross section [1, 4] | reversed-phase LC retention time [2, 4] | collision cross section [1, 5] | reversed-phase LC retention time [2, 5]
C[N+](C)(C)Cc1ccccc1 [Benzyltrimethylammonium] | 129.9 Å² | 5.04 min | – | – | – | –
CNCCCN1c2ccccc2CCc2ccccc21 [Desipramine] | – | – | 164.14 Å² | 12.9 min | – | –
CC(=O)O[C@]1(C(C)=O)CC[C@H]2[C@@H]3C=C(C)C4=CC(=O)CC[C@]4(C)[C@H]3CC[C@@]21C [Megestrol-17-acetate] | – | – | 198.3 Å² | 15.2 min | – | –
COc1cc(Cc2cnc(N)nc2N)cc(OC)c1OC [Trimethoprim] | – | – | 173.75 Å² | 7.8 min | – | –
COCC(C)N(C(=O)CCl)c1c(C)csc1C (stereo unspecified) [Dimethenamid] | – | – | 155.6 Å² | 14 min | – | –
CC(C)N(C(=O)SCC(Cl)=C(Cl)Cl)C(C)C [Triallate] | – | – | 162.33 Å² | 17.2 min | – | –
CCCOC(=O)c1ccc(O)cc1 [Propylparaben] | – | – | – | – | 140.81 Å² | 12.9 min
CN(C)CCCC1(c2ccc(F)cc2)OCc2cc(C#N)ccc21 (stereo unspecified) [Citalopram] | – | – | 182.06 Å² | 11.3 min | – | –
Cc1nc(N(C)C)nc(OC(=O)N(C)C)c1C [Pirimicarb] | – | – | 156.34 Å² | 10.5 min | – | –
O=C1Nc2ccc(Cl)cc2C(C#CC2CC2)(C(F)(F)F)O1 (stereo unspecified) [Efavirenz] | – | – | 168.93 Å² | 15.4 min | 167.59 Å² | 15.8 min
CCNC(=O)c1cccc(C)c1 [N-Ethyl-3-methylbenzamide] | – | – | 135.66 Å² | 10.7 min | – | –
CC(C)CC(C)NC1=CC(=O)C(Nc2ccccc2)=CC1=O (stereo unspecified) [6PPD-Quinone] | – | – | 181.85 Å² | 15.6 min | – | –
N#C/N=C1/SCCN1Cc1ccc(Cl)nc1 [Thiacloprid] | – | – | 158.43 Å² | 9.94 min | 153.51 Å² | 10 min
CC/C(=C(\c1ccccc1)c1ccc(OCCN(C)C)cc1)c1ccccc1 [Tamoxifen] | – | – | 198.29 Å² | 15.7 min | – | –
CCC(=O)OCC(=O)[C@@]1(OC(=O)CC)[C@@H](C)C[C@H]2[C@@H]3CCC4=CC(=O)C=C[C@]4(C)[C@@]3(Cl)[C@@H](O)C[C@@]21C [Beclometasone dipropionate] | – | – | – | – | 223.83 Å² | 16.5 min
Oc1ccc(Cc2ccc(O)cc2)cc1 [Bisphenol F] | – | – | – | – | 152.1 Å² | 11.9 min
CCCCOC(=O)c1ccccc1C(=O)OCc1ccccc1 [Benzylbutylphthalate] | – | – | 178.47 Å² | 16.3 min | – | –

Structure (SMILES) | collision cross section [1, 3] | reversed-phase LC retention time [2, 3] | collision cross section [1, 4] | reversed-phase LC retention time [2, 4] | collision cross section [1, 5] | reversed-phase LC retention time [2, 5]
NC(N)=NC(=O)c1nc(Cl)c(N)nc1N [Amiloride] | – | – | 149.53 Å² | 6.27 min | – | –
Cc1cc(O)ccc1Cl [p-Chlorocresol] | – | – | – | – | 122.21 Å² | 11.6 min
CCOC(=O)c1ccc(N(C)C)cc1 [Ethyl 4-(dimethylamino)benzoate] | – | – | 148.66 Å² | 14.2 min | – | –
CC(Cc1ccc(C(C)(C)C)cc1)CN1C[C@@H](C)O[C@@H](C)C1 (stereo partly specified) [Fenpropimorph] | – | – | 174.32 Å² | 13.8 min | – | –
C#CCOS(=O)OC1CCCCC1Oc1ccc(C(C)(C)C)cc1 (stereo unspecified) [Propargite] | – | – | 195.16 Å² | 17.4 min | – | –
CO/N=C(/C(=O)O)c1ccccc1CO/N=C(\C)c1cccc(C(F)(F)F)c1 | – | – | 186.57 Å² | 15.5 min | – | –
CCCCC(CC)COP(=O)(O)OCC(CC)CCCC (stereo unspecified) [Bis(2-ethylhexyl)phosphate] | – | – | 223.46 Å² | 19.8 min | 188.09 Å² | 17.1 min
COCC(C)N(C(=O)CS(=O)(=O)O)c1c(C)csc1C (stereo unspecified) [Dimethenamid ESA] | – | – | 166.05 Å² | 10.9 min | 168.76 Å² | 10.9 min
CCCCCCS(=O)(=O)O [1-Hexanesulfonic acid] | – | – | – | – | 137.49 Å² | 9.04 min
O=C(NCCc1ncc(C(F)(F)F)cc1Cl)c1ccccc1C(F)(F)F [Fluopyram] | – | – | 177.5 Å² | 14.7 min | 179.2 Å² | 15.2 min
CN1C(=O)CN=C(c2ccccc2)c2cc(Cl)ccc21 [Diazepam] | – | – | 165.95 Å² | 14.2 min | – | –
CC(C)(c1ccccc1)c1cc(-n2nc3ccccc3n2)c(O)c(C(C)(C)c2ccccc2)c1 [UV-234] | – | – | 219.51 Å² | 19.7 min | – | –
COP(=S)(OC)Oc1c(Cl)cc(C)cc1Cl [Toclofos-methyl] | – | – | 151.78 Å² | 15.8 min | – | –
Cc1cc(Cl)ccc1/N=C/N(C)C [Chlordimeform] | – | – | 145.93 Å² | 8.19 min | – | –
C[C@H]1C[C@@H]2[C@H]([C@@H](O)C[C@@]3(C)[C@H]2CC[C@]3(O)C(=O)CO)[C@@]2(C)C=CC(=O)C=C12 [6alpha-Methylprednisolone] | – | – | 190.78 Å² | 13.3 min | – | –
O=C(/C=C/C=C/c1ccc2c(c1)OCO2)N1CCCCC1 [Piperine] | – | – | 177.09 Å² | 14.6 min | – | –
